Experimental data reported in patent US12213481B1, “4,4′-[(2-hydroxypropane-1,3-diyl)bis(oxy)]dibenzaldehyde as an eco-friendly insecticidal agent against Spodoptera littoralis (boisd.)” (KING FAISAL UNIVERSITY, priority 2023, dated 2025).
Converted amounts (≈) assume the structure as drawn. Where two headings read alike, the source gives them in different places.

Tests used:
[1] = test system: Spodoptera littoralis larvae (2nd and 4th instars, laboratory strain of cotton leafworm); conditions: in vivo
Description: (§1) Five concentrations (200, 100, 50, 25, 12.5 ppm) were designed for this synthetic compound and the reference fenoxycarb's compound as the dynamic ingredients based on ppm via diluting the commercial formulation.
(§2) In this experiment, the synthetic compound was tested for its insecticidal bioactivity using the industry-standard leaf dip bioassay techniques. […] Until usage, the stocks were kept in a refrigerator. The target substance test results were noted & the concentrations needed to destroy 50% (LC50) of S. littoralis larvae were calculated. The target compound was employed in five different concentrations, & 0.1% Tween 80 was employed as a surfactant. Castor bean leaf discs (nine centimeters in diameter) were dipped in the concentration under test for ten seconds, then fed to 2th & 4th larvae, which were roughly the same size and housed in glass jars (five pound). Each action carried out 3 times with ten larvae each. The mortality equalized via Abbott's formula. Calculations of mortality setback line were measurably rummage via probity analysis. Harmfulness index was strongminded via sun equations. The mortality results of larval insect were estimated through employing probit analysis through a statistics (LDP-line) equation which estimate the LC50 values with 95% fiducially limits of lower, upper confidence limit and slope.

[2] = test system: Spodoptera littoralis larvae (2nd and 4th instars, laboratory strain of cotton leafworm); assay: Insecticidal leaf dip bioassay screening; conditions: for Toxicity index %: fenoxycarb's LC50/compound's LC50 * 100; for LC50: Spodoptera littoralis, in Gossypium hirsutum, foliar, 72 h
Description: as §1, §2

aquatic insects = conditions: cited from earlier work
[3] = read-out: LC50 (mg/L) at 95%, 2nd instar larvae, after 72 hours of treatment, leaf dip
[4] = read-out: LC50 (mg/L) at 95%, 4th instar larvae, after 72 hours of treatment, leaf dip

Row | Structure (SMILES) | LC50 (mg/L) at 95% [1] | Toxicity index % ([2]; 2nd instar larvae, 72 hours) [%] | Toxicity index % ([2]; 4th instar larvae, 72 hours) [%] | LC50 [2, 3] [mg/L] | LC50 [2, 4] [mg/L] | activity against Spodoptera littoralis (in words) ([2]; compared with the reference insecticide Fenoxycarb, 72 hours) | LC50 (aquatic insects) [µg/mL]
1 | O=Cc1ccc(OCC(O)COc2ccc(C=O)cc2)cc1 [Compound 1, 4,4′-[(2-hydroxypropane-1,3-diyl)bis(oxy)]dibenzaldehyde] | about 25.62 mg/L | 22.93 | 69.54 | 25.6 (≈ 85.3 µM) | ~86.1 (≈ 287 µM) | active against Spodoptera littoralis | 
2 | CCOC(=O)NCCOc1ccc(Oc2ccccc2)cc1 [fenoxycarb, reference compound] |  |  |  | 5.94 (≈ 19.7 µM) | 59.9 (≈ 199 µM) |  | 
3 | CCc1ccc(C(=O)NN(C(=O)c2cc(C)cc(C)c2)C(C)(C)C)cc1 [tebufenozide] |  |  |  |  |  |  | 100 to 1000
